Source: patent US20230174649A1, “PHARMACEUTICAL COMPOSITIONS CONTAINING ANTI-CD47 ANTIBODIES” (I-MAB BIOPHARMA US LIMITED, priority 2020, published 2023)
Several values for one entry are separate records, joined by “and”; a condition that tells them apart may be missing. Identical values can stand only once.

Assays:
Format in all cases: cell-based, Human
macrophages = assay: Macrophage Viability Assay (CellTiter-Glo); settings: for Macrophage viability (CellTiter-Glo Luminescent Cell Viability Assay): 16 hours, three replicate lines
Experimental: Then, the monocytes isolated by MACS were subsequently cultured in fresh complete medium supplemented with recombinant human granulocyte-macrophage colony-stimulating factor GM-CSF (50 ng/ml) and human recombinant IL-4 (35 ng/ml) to activate differentiated macrophages. After 6 days of culture (on day 7), cells were harvested, pooled together and counted for next use.
The cells from Example 2 were plated into a 96-well flat bottom plate at a density of 0.05×10^6 cells/well. After 2 hours of incubation, the macrophages were well attached to the plate. Then selected small molecule therapeutic agents were added to the well and cocultured for 16 hours. On day 8, macrophage viability was assessed by CellTiter-Glo® Luminescent Cell Viability Assay, according to the manufacture's instruction.

Toledo Cells = assay: FACS-based phagocytosis assay, macrophages cocultured with Toledo cells
Experimental: FACS-based phagocytosis assays were performed to evaluate the phagocytic abilities of macrophages.
Toledo Cells (a tumor cell line, as a target) were labelled with CellTrace™ Far Red and plated into 96-well plate at a density of 0.15×10^6 cells/well for 12 hours. The Macrophages were prepared as discussed above and then labelled with CellTrace Violet. Next, the macrophages were added into the plate as an effector at an effector:target (Toledo) ratio of 1:3, giving a final density of macrophages at 0.05×10^6 cells/well. Macrophages and tumor cells were cocultured for 2-6 h at 37° C. in the presence of the indicated treatments (small molecule therapeutic agents, CD47 antibody, CD20 antibody or combinations). The incubation time depending on the phagocytosis rate, expecting phagocytosis of 5-20% cells.
Then, cells were acquired and data were analyzed.

CD47 = assay: FACS analysis of expression level of CD47 on tumor cell surface; settings: Toledo cells, 12 hours
Experimental: (§1) For FACS analysis, on the day of analysis (day 1), Toledo cells were seeded into 96 well plate and cultured at a density of 0.2×10^6 cells/well. Then the cells were treated with the selected small molecule therapeutic agents for 12 hours.
(§2) On day 2, cells were harvested, washed twice and then re-suspended in 100 uL FACS buffer subject to FACS analysis. For detection of the expression of calreticulin and CD47, cells were incubated with anti-calreticulin antibody and commercially available anti-CD47 antibody (BD Biosciences, Catalog number: 561249) in dark at 4° C. for 30 mins.
(§3) Then, the cells were subject to FACS analysis. Data was acquired and analyzed.

Calreticulin = assay: FACS analysis of expression level of calreticulin on tumor cell surface; settings: Toledo cells, 12 hours
Experimental: as §1, §2, §3

For `Cn1c(CCCC(=O)O)nc2cc(N(CCCl)CCCl)ccc21` [Bendamustine], the “Macrophage viability (CellTiter-Glo Luminescent Cell Viability Assay)” value (“Macrophage viability” for short) (macrophages; Cpd 0.002 uM) was 6292 and 6220 and 5908, the “Macrophage viability” value (macrophages; Cpd 0.008 uM) was 6248 and 6356 and 6028 and the “Macrophage viability” value (macrophages; Cpd 0.04 uM) was 6248 and 6124 and 5788. The “Macrophage viability” value (macrophages; Cpd 0.2 uM) was 6320 and 6664 and 5768, the “Macrophage viability” value (macrophages; Cpd 1 uM) was 6220 and 6200 and 5436 and the “Macrophage viability” value (macrophages; Cpd 5 uM) was 6424 and 6308 and 5064. For the same compound, the “Macrophage viability” value (macrophages; Cpd 25 uM) was 5884 and 5724 and 4340, the “Macrophage viability” value (macrophages; Cpd 50 uM) was 5500 and 5736 and 4112 and the “toxicity to macrophages” value (macrophages; dose as high as 50 μM) was “showed toxicity”. For the same compound, the “toxicity to macrophages” value (macrophages; dose lower than 10 μM) was “little toxic”, the “macrophage phagocytosis (untreated = 1.00)” value (“macrophage phagocytosis” for short) (Toledo Cells; Cpd 0.0016 uM, T4J = 0, R = 0) was 1.06 and the “macrophage phagocytosis” value (Toledo Cells; Cpd 0.0016 uM, T4J = 0, R = 0.01 ug/ml) was 1.58. The “macrophage phagocytosis” value (Toledo Cells; Cpd 0.0016 uM, T4J = 0.1 ug/ml, R = 0) was 2.53, the “macrophage phagocytosis” value (Toledo Cells; Cpd 0.0016 uM, T4J = 0.1 ug/ml, R = 0.01 ug/ml) was 3.29 and the “macrophage phagocytosis” value (Toledo Cells; Cpd 0.008 uM, T4J = 0, R = 0) was 1.00. The “macrophage phagocytosis” value (Toledo Cells; Cpd 0.008 uM, T4J = 0, R = 0.01 ug/ml) was 1.52, the “macrophage phagocytosis” value (Toledo Cells; Cpd 0.008 uM, T4J = 0.1 ug/ml, R = 0) was 2.67 and the “macrophage phagocytosis” value (Toledo Cells; Cpd 0.008 uM, T4J = 0.1 ug/ml, R = 0.01 ug/ml) was 3.26. The “macrophage phagocytosis” value (Toledo Cells; Cpd 0.04 uM, T4J = 0, R = 0) was 0.98, the “macrophage phagocytosis” value (Toledo Cells; Cpd 0.04 uM, T4J = 0, R = 0.01 ug/ml) was 1.53 and the “macrophage phagocytosis” value (Toledo Cells; Cpd 0.04 uM, T4J = 0.1 ug/ml, R = 0) was 2.57. For the same compound, the “macrophage phagocytosis” value (Toledo Cells; Cpd 0.04 uM, T4J = 0.1 ug/ml, R = 0.01 ug/ml) was 3.19, the “macrophage phagocytosis” value (Toledo Cells; Cpd 0.2 uM, T4J = 0, R = 0) was 0.96 and the “macrophage phagocytosis” value (Toledo Cells; Cpd 0.2 uM, T4J = 0, R = 0.01 ug/ml) was 1.41. The “macrophage phagocytosis” value (Toledo Cells; Cpd 0.2 uM, T4J = 0.1 ug/ml, R = 0) was 2.51, the “macrophage phagocytosis” value (Toledo Cells; Cpd 0.2 uM, T4J = 0.1 ug/ml, R = 0.01 ug/ml) was 3.10 and the “macrophage phagocytosis” value (Toledo Cells; Cpd 1 uM, T4J = 0, R = 0) was 1.03. For the same compound, the “macrophage phagocytosis” value (Toledo Cells; Cpd 1 uM, T4J = 0, R = 0.01 ug/ml) was 1.46, the “macrophage phagocytosis” value (Toledo Cells; Cpd 1 uM, T4J = 0.1 ug/ml, R = 0) was 2.47 and the “macrophage phagocytosis” value (Toledo Cells; Cpd 1 uM, T4J = 0.1 ug/ml, R = 0.01 ug/ml) was 3.05. For the same compound, the “phagocytic ability of macrophages” value (Toledo Cells; triple combination: T4J, Rituximab and the small molecule) was “does not show the synergistic effects”, the “Mean Fluorescence Intensity (MFI) CD47” value (CD47; 0.008 uM) was 9132 and the “Mean Fluorescence Intensity (MFI) CD47” value (CD47; 0.04 uM) was 8684. For the same compound, the “Mean Fluorescence Intensity (MFI) CD47” value (CD47; 0.2 uM) was 8687, the “Mean Fluorescence Intensity (MFI) CD47” value (CD47; 1 uM) was 8319 and the “Mean Fluorescence Intensity (MFI) CD47” value (CD47; 5 uM) was 9192. For the same compound, the “Mean Fluorescence Intensity (MFI) Calreticulin” value (Calreticulin; 0.008 uM) was 68.6, the “Mean Fluorescence Intensity (MFI) Calreticulin” value (Calreticulin; 0.04 uM) was 70.1 and the “Mean Fluorescence Intensity (MFI) Calreticulin” value (Calreticulin; 0.2 uM) was 70.2. The “Mean Fluorescence Intensity (MFI) Calreticulin” value (Calreticulin; 1 uM) was 76.3 and the “Mean Fluorescence Intensity (MFI) Calreticulin” value (Calreticulin; 5 uM) was 86.2.
